Data set [1] concerns Nitrosomonas europaea IF014298 with luciferase gene (luxAB). Put plainly: in-vitro nitrification bacteria test, biological luminescence accompanying nitrification reaction. Particulars: incubation at 15° C. for 30 minutes; for 80% inhibitory concentration: concentration where the nitrification inhibitory ratio became 80%.
For data set [2] the following is noted: in the ordinarily used range; RTECS No. QJ5775000; cited from earlier work.

Regarding `Clc1cccc(C(Cl)(Cl)Cl)n1` [Comparative Example 14, 2-chloro-6-Trichloromethylpyridine, reference compound], the 80% inhibitory concentration in data set [1] was 4 ppm.

With `N#CN=C(N)N` [Comparative Example 15, dicyanodiamide, reference compound], the 80% inhibitory concentration in data set [1] was 185 ppm.

Take `O=C1C=CC(=O)c2c(O)cccc21` [Example 1, 5-hydroxy-1,4-naphtoquinone]: the 80% inhibitory concentration in data set [1] is reported as 0.08 ppm. In data set [1] (concentration where the nitrification-inhibitory ratio became 50%), the 50% inhibitory concentration is reported as 0.03 ppm. Further, the toxicity entry in data set [2] is reported as “low toxicity”.

(Values after US20080307843A1, “Nitrification inhibitor and soil improver and fertilizer containing the same” (JAPAN INTERNATIONAL RESEARCH CENTER FOR AGRICULTURAL …, priority 2006, published 2008).)
